Values of other authors as cited in patent publication US20080160064A1, “DEVICES AND METHODS FOR […]” (priority 2006, published 2008).

Target: hemoglobin (Homo sapiens, UniProt P68871+P69905)
Conditions: higher affinity than oxygen

hemoglobin, sequence (P69905 2-142 limits assumed): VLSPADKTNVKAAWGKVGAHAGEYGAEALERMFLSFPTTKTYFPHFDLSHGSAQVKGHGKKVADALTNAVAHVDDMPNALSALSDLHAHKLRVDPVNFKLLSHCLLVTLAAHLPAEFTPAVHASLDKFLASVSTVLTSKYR
hemoglobin, sequence (P68871 2-147 limits assumed): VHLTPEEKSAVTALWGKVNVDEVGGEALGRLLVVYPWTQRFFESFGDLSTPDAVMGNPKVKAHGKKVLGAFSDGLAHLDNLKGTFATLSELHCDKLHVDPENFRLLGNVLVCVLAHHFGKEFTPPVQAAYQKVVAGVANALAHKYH

[C-]#[O+] [CO, Carbon monoxide]
affinity for hemoglobin relative to oxygen: ~200 ×
